Measurements as given in US20250049747A1, “USE OF HYPERPOLARIZING AGENTS ALONE AND IN COMBINATION WITH OTHER THERAPEUTIC AGENTS FOR TREATING CANCERS INCLUDING GLIOBLASTOMA” (Trustees of Tufts College, priority 2021, published 2025).

Test system: U87 cells
Assay: Antibody staining, BrdU and senescence assays in U87 cells
Format: cell-based, human
Details: U87, 6 days
Experimental: Antibody Staining, BrdU and Senescence Assays. NG108-15 cells were plated on PEI and Matrigel coated plates at 15,000 or 30,000 cells/mL, U87 cells at 10,000 cells/mL and grown in imaging media for 6 days with drug treatment. Fresh media was added every 2 days. On day 6, cells were fixed with 4% formaldehyde in PBS for 30 minutes for all antibody staining, except for BrdU which was fixed for 15 minutes, and for the senescence assay which was fixed for 20 min using the Senescence Beta-Galactosidase Staining Kit (9860, CellSignaling) and thereafter stained according to manufacturer's protocol. After fixing, cells were washed twice with PBS, and were permeabilized in PBS with 0.3% Triton-X for 15 min then washed again twice with PBS. The cells for the BrdU assay were additionally treated with 1N HCl for 10 min on ice, followed by a treatment with 2N HCl for 50 min at room temp. Cells were then blocked with standard blocking buffer comprised of TBS containing 10% goat serum, 0.1% BSA, and with 0.05% Tween 20 or without detergent for antibodies against phosphorylated proteins or monoclonal antibodies except for Anti-YAP and Anti-BrdU staining, which were done according to manufacturer's protocol. […] Cells were imaged with an EVOS M7000 system, with at least 50% of each well in a 96 well plate imaged and analyzed using a CellProfiler pipeline for measuring integrated intensity, mean intensity, or nuclear to cytoplasmic ratio of mean intensities.

COc1ccnc(C[S+]([O-])c2nc3ccc(OC(F)F)cc3[nH]2)c1OC (stereo not drawn) [Pantoprazole, pantoprazole]
NFM and NSE: increased | YAP nuclear to cytoplasmic ratio: not to have a significant effect | astrocytic differentiation markers: increased
